pEC50: −log10 of the molar value.
Tests used:
[1] = biological target: T1, Potassium/sodium hyperpolarization-activated cyclic nucleotide-gated channel 4 (Homo sapiens, UniProt Q9Y3Q4); assay: Inhibition of human HCN4 expressed in HEK293 cells assessed as reduction in hyperpolarization activated current at holding potential of -80 mV by patch clamp assay; assay type: cell-based
T1 sequence (Q9Y3Q4 whole entry): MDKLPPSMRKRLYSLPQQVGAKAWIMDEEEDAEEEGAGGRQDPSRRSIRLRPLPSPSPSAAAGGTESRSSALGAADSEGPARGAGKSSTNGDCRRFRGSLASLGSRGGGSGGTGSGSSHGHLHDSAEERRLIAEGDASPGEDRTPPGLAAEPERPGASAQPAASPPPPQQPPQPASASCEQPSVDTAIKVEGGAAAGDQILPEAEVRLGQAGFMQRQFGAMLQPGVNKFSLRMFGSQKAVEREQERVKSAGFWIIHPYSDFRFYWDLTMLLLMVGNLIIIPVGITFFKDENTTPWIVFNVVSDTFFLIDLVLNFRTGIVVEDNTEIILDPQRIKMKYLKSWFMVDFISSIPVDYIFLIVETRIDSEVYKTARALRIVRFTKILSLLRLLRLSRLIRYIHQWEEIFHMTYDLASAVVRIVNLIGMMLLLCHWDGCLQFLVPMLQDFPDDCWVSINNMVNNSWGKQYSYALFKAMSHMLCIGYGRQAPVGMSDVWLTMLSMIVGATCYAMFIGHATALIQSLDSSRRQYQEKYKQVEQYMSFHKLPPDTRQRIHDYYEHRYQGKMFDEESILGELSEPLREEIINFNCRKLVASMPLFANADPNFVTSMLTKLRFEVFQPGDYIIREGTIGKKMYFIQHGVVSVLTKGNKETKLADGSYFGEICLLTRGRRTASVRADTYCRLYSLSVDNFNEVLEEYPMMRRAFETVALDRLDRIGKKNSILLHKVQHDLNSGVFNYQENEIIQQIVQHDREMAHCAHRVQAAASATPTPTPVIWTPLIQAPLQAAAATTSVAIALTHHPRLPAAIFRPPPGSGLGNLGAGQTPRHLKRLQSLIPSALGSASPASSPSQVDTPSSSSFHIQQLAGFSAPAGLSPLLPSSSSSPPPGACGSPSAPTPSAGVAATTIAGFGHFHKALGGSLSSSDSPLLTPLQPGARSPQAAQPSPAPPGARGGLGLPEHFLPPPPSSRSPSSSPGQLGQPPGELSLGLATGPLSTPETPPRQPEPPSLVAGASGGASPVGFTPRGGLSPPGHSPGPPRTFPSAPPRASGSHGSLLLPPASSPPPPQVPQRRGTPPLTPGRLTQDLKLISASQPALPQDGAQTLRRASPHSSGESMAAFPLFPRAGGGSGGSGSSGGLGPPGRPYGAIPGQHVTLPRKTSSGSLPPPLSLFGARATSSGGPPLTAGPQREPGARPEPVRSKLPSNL

[2] = test system: Cardiac muscle of left ventricle; assay: (§1) Effect on cardiac electrophysiological profile in Mongrel perfused dog heart left ventricular muscle stimulated at basic cycle length of 1000 milliseconds assessed as action potential time duration at 10% of repolarization at 1 uM measured after 25 mins by glass capillary microelectrode based electrophysiology assay (reference value: 69.9 +/- 10.84 milliseconds); assay type: functional, Canis lupus familiaris
Cavia porcellus = species on record: Cavia porcellus; assay: Inhibition of HCN4 in guinea pig single sinoatrial node assessed as reduction in hyperpolarization activated current at 10 uM at holding potential of -120 mV by patch clamp assay relative to control
[3] = test system: Cardiac muscle of left ventricle; assay: as §1, with “maximum diastolic” for “action”, “potential” for “potential time duration”, “10” for “10% of repolarization at 1”, “-83.8” for “69.9”, “2.28 mV)” for “10.84 milliseconds)”; assay type: functional, Canis lupus familiaris
[4] = test system: Cardiac muscle of left ventricle; assay: as §1, with “25%” for “10%”, “131.7” for “69.9”, “13.1” for “10.84”; assay type: functional, Canis lupus familiaris
[5] = biological target: T2, Potassium/sodium hyperpolarization-activated cyclic nucleotide-gated channel 4 (Homo sapiens) (UniProt Q9Y3Q4); assay: Inhibition of human HCN4 expressed in HEK293 cells assessed as reduction in hyperpolarization activated current at 5 uM at holding potential of -80 mV by patch clamp assay relative to control; assay type: cell-based
T2 sequence (whole entry): T1 sequence (Q9Y3Q4 whole entry)

[6] = test system: Cardiac muscle of left ventricle; assay: as §1, with “at 75%” for “at 10%”, “at 10” for “at 1”, “value: 199.7” for “value: 69.9”, “+/- 16.87” for “+/- 10.84”; assay type: functional, Canis lupus familiaris
[7] = test system: Cardiac muscle of left ventricle; assay: as §1, with “amplitude” for “time duration at 10% of repolarization”, “104.1” for “69.9”, “2.7 mV)” for “10.84 milliseconds)”; assay type: functional, Canis lupus familiaris
[8] = test system: Cardiac muscle of left ventricle; assay: as §1, with “at 25%” for “at 10%”, “at 10” for “at 1”, “value: 131.7” for “value: 69.9”, “+/- 13.1” for “+/- 10.84”; assay type: functional, Canis lupus familiaris
[9] = test system: Cardiac muscle of left ventricle; assay: as §1, with “conduction” for “action potential”, “time” for “time duration at 10% of repolarization”, “4.8” for “69.9”, “0.60” for “10.84”; assay type: functional, Canis lupus familiaris
Mus musculus = species on record: Mus musculus; assay: Effect on voltage-dependent K+ channel in C57BL/6J mouse thalamocortical relay neuron assessed as inhibition of step depolarization-induced K+ outward current at 10 uM by whole cell patch clamp assay relative to control
[10] = test system: Cardiac muscle of left ventricle; assay: as §1, with “at 90%” for “at 10%”, “at 10” for “at 1”, “value: 212.5” for “value: 69.9”, “+/- 16.25” for “+/- 10.84”; assay type: functional, Canis lupus familiaris
[11] = test system: Cardiac muscle of left ventricle; assay: as §1, with “maximum diastolic” for “action”, “potential” for “potential time duration at 10% of repolarization”, “-83.8” for “69.9”, “2.28 mV)” for “10.84 milliseconds)”; assay type: functional, Canis lupus familiaris

COc1ccc(CCN(C)[C@@H]2CCC[C@H](N3CCc4cc(OC)c(OC)cc4CC3=O)C2)cc1OC (racemic) gave a pEC50 [1] of 5.40, a Time [2] of 58.6 ms and an inhibition (Cavia porcellus) of 67%. The Activity [3] was -83 mV, the Time [4] was 121.6 ms and the inhibition [5] was 59%. It also gave a Time [6] of 206 ms, an Activity [7] of 103.1 mV and a Time [8] of 125.1 ms. It also gave a Time [9] of 4.7 ms, an inhibition (Mus musculus) of 14.5% and a Time [10] of 220.2 ms. It also gave an Activity [11] of -84 mV.

Source: ChEMBL document CHEMBL4433219, “EC18 as a Tool To Understand the Role of HCN4 Channels in Mediating Hyperpolarization-Activated Current in Tissues” (ACS Med Chem Lett, 2019)
